PubChem BioAssay (NCI)
Values joined by “and” are separate entries in the source; they are usually repeats but may differ in a detail not shown here. Equal values may be shown once.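 Cultured in 96-well plates, cells were exposed to test compound for 48 hours across five concentrations. The concentration for 50% growth inhibition is given as GI50. The concentration for full growth arrest is given as TGI.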

How the values were obtained:
Assay in all cases: inhibition of tumour cell growth, NCI panel, 48 h
SNB-78 CNS = test system: SNB-78 CNS
EKVX NSCLC = test system: EKVX NSCLC
ACHN renal = test system: ACHN renal
UACC-62 melanoma = test system: UACC-62 melanoma
OVCAR-8 ovarian = test system: OVCAR-8 ovarian
SK-MEL-28 melanoma = test system: SK-MEL-28 melanoma
LXFL 529 NSCLC = test system: LXFL 529 NSCLC
UACC-257 melanoma = test system: UACC-257 melanoma
HCT-15 colon = test system: HCT-15 colon
MDA-MB-231 breast = test system: MDA-MB-231 breast

| SMILES | TGI (SNB-78 CNS) | TGI (EKVX NSCLC) | TGI (ACHN renal) | TGI (UACC-62 melanoma) | TGI (OVCAR-8 ovarian) | TGI (SK-MEL-28 melanoma) | TGI (LXFL 529 NSCLC) | TGI (UACC-257 melanoma) | TGI (HCT-15 colon) | TGI (MDA-MB-231 breast) | GI50 (SNB-78 CNS) | GI50 (EKVX NSCLC) | GI50 (ACHN renal) | GI50 (UACC-62 melanoma) | GI50 (OVCAR-8 ovarian) | GI50 (MDA-MB-231 breast) | GI50 (SK-MEL-28 melanoma) | GI50 (UACC-257 melanoma) | GI50 (HCT-15 colon) | GI50 (LXFL 529 NSCLC) |
| --- | --- | --- | --- | --- | --- | --- | --- | --- | --- | --- | --- | --- | --- | --- | --- | --- | --- | --- | --- | --- |
| Cc1c(C)c2cc3c(=O)c(CCl)coc3c(C)c2oc1=O | > 100 µM | > 100 µM | > 100 µM | > 100 µM | > 100 µM | > 100 µM | > 100 µM | > 100 µM | > 100 µM |  |  |  |  |  |  |  |  |  |  |  |
| Cn1cc(-c2ccc3c4ccccc4n(C)c3c2)c2ccccc21 | > 100 µM | > 100 µM | > 100 µM | > 100 µM | > 100 µM | > 100 µM | > 100 µM | > 100 µM | > 100 µM |  |  |  |  |  |  |  |  |  |  |  |
| COc1ccc2nc3cc(Cl)ccc3c(Nc3ccccc3-c3ccccc3Nc3c4ccc(Cl)cc4nc4ccc(OC)cc34)c2c1 | > 100 µM | > 100 µM | > 59.2 µM | > 66.3 µM | > 100 µM | > 86.6 µM | > 50.5 µM | > 46.4 µM | > 66.9 µM | > 100 µM |  |  |  |  |  |  |  |  |  |  |
| C=CC[P@]1(=O)O[C@H](c2ccccc2)C(C)N1C(C)C (some centres not stated) |  | > 100 µM | > 100 µM | > 100 µM | > 100 µM | > 100 µM | > 100 µM | > 100 µM | > 100 µM |  |  |  |  |  |  |  |  |  |  |  |
| CCC/C=C/C=C/C(=O)OC1/C(=C/C(=O)OC)CC2CC(C(C)O)OC(=O)CC(O)CC3CC(OC(C)=O)C(C)(C)C(O)(CC4C/C(=C/C(=O)OC)CC(/C=C/C(C)(C)C1(O)O2)O4)O3 (configuration not stated) | 7.22 µM and 11 µM | > 10.9 µM and 9.53 µM and > 12.5 µM | 11 µM and > 12.5 µM | > 10.9 µM and 11 µM and > 12.5 µM | > 10.9 µM and 11 µM and > 12.5 µM | > 10.9 µM and 11 µM and > 12.5 µM |  | 6.42 µM and 11 µM and > 12.5 µM | 7.35 µM and 11 µM and > 12.5 µM | 11 µM and > 12.5 µM | 5.56 µM and 10.3 µM | > 10.9 µM and 5.21 µM and > 12.5 µM | > 12.5 µM | > 10.9 µM and 5.26 µM and > 12.5 µM | > 10.9 µM and 7.33 µM and > 12.5 µM | > 12.5 µM | 8.54 µM and > 12.5 µM | 5.13 µM and 8.15 µM and > 12.5 µM | 5.15 µM and 10.8 µM and > 12.5 µM |  |
| Cc1nc(-n2nc(-c3ccccc3)cc2-c2ccccc2)sc1C(=O)CC(=O)C(=O)Nc1ccc(Cl)c(Cl)c1 | > 100 µM | > 100 µM | > 100 µM | > 100 µM | > 100 µM |  | > 100 µM | > 100 µM | > 100 µM |  |  |  |  |  |  |  |  |  |  |  |
| COc1ccc2c(c1OC)C(=O)C2 |  | > 100 µM | > 100 µM | > 100 µM | > 100 µM | > 100 µM | > 100 µM | > 100 µM | > 100 µM |  |  |  |  |  |  |  |  |  |  |  |
| N.N.N.N.N#N.N#N.[Cl-].[Os+6] | > 100 µM | > 100 µM |  | > 100 µM | > 100 µM | > 100 µM | > 100 µM |  | > 100 µM |  | > 100 µM | > 100 µM |  | > 100 µM | > 100 µM |  | > 100 µM |  | > 100 µM | > 100 µM |
| CC(=O)OC1(Sc2ccccc2)CC2[C@H]3COC(C)(C)O[C@H]3CC[C@@]2(C)CC1=O (some centres not stated) | > 100 µM | > 100 µM | > 100 µM | > 100 µM | > 100 µM | > 100 µM | > 100 µM | > 100 µM | > 100 µM |  |  |  |  |  |  |  |  |  |  |  |
| C=CCCC(O)c1cc(C)c(O)c(C)c1 (configuration not stated) | > 100 µM | > 100 µM | > 100 µM | > 100 µM | > 100 µM | > 100 µM | > 100 µM | > 100 µM | > 100 µM |  |  |  |  |  |  |  |  |  |  |  |
